Measurements reported in patent publication US20240082238A1, “COMPOSITIONS AND METHODS FOR TREATING CANCER” (UNIVERSITY OF IOWA RESEARCH FOUNDATION, priority 2021, published 2024).

System: Hec50co cells
Assay: Intracellular accumulation of PTX-OG (flow cytometry, confocal microscopy)
Format: cell-based, human
Settings: 400 nM PTX-OG alone, 2 h
Method: Intracellular accumulation of PTX using flow cytometer. To evaluate PTX cellular accumulation in the presence or absence of CIP2b, Hec50co cells were seeded at a density of 200,000 cells per well in 6-well plates in complete medium and incubated for 24 h. Afterward, the medium was removed, and a DMSO-based solution (0.1 mg/mL) of fluorescently labeled PTX (PTX-OG) was added at 400 nM per well, and the volume was completed to 2 mL with the medium. Also, CIP2b (in DMSO) was added at 4 or 40 μM, either alone or in combination with PTX-OG. After 2 h, the medium was removed, the cells were washed thoroughly with DPBS, trypsinized, and collected by centrifugation (230 xg, 5 min). Finally, cells were analyzed by flow cytometry (FACScan).
Intracellular accumulation of PTX using confocal microscopy. Intracellular accumulation of PTX co-delivered with CIP2b was also studied qualitatively in Hec50co cells using confocal microscopy. […]
In vitro activity of CIP2b NPs. […] An equivalent quantity of blank NPs was also tested to account for the effect of the PLGA NPs alone without CIP2b. […] An equivalent quantity of blank NPs was also added, either alone or with PTX-OG. Samples were then analyzed using a flow cytometer, as described above.

SMILES: CC(=O)O[C@H]1C(=O)[C@@]2(C)[C@H]([C@H](OC(=O)c3ccccc3)[C@]3(O)C[C@H](OC(=O)[C@H](O)[C@@H](NC(=O)c4ccccc4)c4ccccc4)C(C)=C1C3(C)C)[C@]1(OC(C)=O)CO[C@@H]1C[C@@H]2O [PTX, paclitaxel]
- cellular uptake of PTX-OG: readily taken up
